Patent US20070299092A1 (Wyeth, priority 2004, published 2007)
Several values for one entry are separate records, joined by “and”; a condition that tells them apart may be missing. Equal entries are not always repeated. Where two headings read alike, the source gives them in different places.

Key:
[1] = biological target: T1, human KDR (VEGF-receptor-2) (Homo sapiens, UniProt P35968); assay: KDR kinase enzyme assay (DELFIA, KDR-IC-Flag, poly(Glu4-Tyr) peptide); assay type: biochemical; conditions: for inhibition at 0.1 µM / inhibition at 1 µM: read-out: % Inhibition
T1 construct: beginning at Met-806; (5′-ATG GAT CCA GAT GM CTC CCA TTG) and ending at Val-1356; made in house
T1 sequence (P35968 806-1356): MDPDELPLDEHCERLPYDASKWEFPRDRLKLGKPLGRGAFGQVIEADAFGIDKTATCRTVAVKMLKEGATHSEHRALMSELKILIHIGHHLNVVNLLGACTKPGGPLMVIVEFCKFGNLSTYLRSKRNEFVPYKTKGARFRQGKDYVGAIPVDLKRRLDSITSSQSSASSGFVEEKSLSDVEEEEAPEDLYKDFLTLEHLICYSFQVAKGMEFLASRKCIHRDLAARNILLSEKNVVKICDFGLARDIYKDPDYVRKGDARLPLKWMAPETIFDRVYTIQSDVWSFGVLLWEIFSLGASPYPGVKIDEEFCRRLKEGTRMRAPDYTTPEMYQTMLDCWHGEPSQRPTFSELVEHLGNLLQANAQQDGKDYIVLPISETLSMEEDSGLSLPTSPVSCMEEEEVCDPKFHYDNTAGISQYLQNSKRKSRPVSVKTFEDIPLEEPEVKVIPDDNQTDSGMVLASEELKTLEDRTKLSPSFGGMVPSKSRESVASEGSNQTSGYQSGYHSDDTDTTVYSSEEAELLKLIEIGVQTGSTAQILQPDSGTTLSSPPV

KDR [2] = biological target: T2, KDR (Homo sapiens, UniProt P35968); conditions: compound conc. 1000 nM
T2 sequence (P35968 20-1356): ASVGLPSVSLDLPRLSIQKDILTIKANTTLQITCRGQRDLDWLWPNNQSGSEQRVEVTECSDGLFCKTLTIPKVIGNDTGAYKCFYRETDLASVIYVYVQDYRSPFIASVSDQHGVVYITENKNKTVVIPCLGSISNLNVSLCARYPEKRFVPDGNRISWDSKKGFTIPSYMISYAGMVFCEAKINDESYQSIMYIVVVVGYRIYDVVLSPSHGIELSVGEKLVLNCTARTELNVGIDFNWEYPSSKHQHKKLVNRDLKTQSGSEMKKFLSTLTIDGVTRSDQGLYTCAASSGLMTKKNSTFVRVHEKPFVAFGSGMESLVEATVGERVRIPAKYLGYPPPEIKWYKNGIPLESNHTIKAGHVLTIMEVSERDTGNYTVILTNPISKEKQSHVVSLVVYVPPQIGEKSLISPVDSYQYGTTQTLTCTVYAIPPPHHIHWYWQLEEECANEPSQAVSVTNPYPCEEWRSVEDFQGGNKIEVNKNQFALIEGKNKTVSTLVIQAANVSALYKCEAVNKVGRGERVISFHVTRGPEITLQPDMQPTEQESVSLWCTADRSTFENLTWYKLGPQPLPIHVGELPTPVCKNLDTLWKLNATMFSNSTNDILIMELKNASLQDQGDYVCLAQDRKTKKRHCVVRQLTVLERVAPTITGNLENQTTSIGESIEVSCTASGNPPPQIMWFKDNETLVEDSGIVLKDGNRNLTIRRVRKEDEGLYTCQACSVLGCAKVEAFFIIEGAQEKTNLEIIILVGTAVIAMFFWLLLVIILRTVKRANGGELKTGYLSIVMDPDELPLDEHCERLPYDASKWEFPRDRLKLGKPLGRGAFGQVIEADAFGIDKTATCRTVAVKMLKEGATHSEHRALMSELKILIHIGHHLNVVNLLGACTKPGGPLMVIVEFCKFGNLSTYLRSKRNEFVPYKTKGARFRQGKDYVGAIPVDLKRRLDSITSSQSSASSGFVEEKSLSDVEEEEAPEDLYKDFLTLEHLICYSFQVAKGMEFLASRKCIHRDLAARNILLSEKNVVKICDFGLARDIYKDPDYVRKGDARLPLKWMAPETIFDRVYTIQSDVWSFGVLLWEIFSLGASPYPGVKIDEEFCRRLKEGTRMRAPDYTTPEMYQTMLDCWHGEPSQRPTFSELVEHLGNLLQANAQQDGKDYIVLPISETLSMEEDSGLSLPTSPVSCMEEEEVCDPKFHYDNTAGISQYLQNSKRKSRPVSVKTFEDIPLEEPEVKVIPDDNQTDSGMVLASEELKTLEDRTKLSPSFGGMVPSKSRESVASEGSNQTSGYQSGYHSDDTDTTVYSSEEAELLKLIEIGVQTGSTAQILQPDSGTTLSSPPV

KDR [3] = biological target: T2, KDR; assay: cell-based; conditions: for inhibition at 1 µM: read-out: % Inhibition of KDR kinase autophosphorylation in KDR15 cells, compound conc. 1000 nM; for IC50: IC50 (nM), inhibition of KDR kinase autophosphorylation in KDR15 cells, KDR15 cells, VEGF 50 ng/ml, phospho-KDR-Y996 immunoblot
[4] = biological target: T1, human KDR (VEGF-receptor-2); assay: KDR kinase enzyme assay wash-out experiments (irreversible inhibition); assay type: biochemical
Description: To determine if compounds bound irreversibly to enzyme, plates were washed after the enzyme plus compound pre-incubation step and prior to the addition of ATP. Parallel plates were tested wherein one plate was processed exactly as above while a second plate was washed three times in 100 μl of 4 mM HEPES, pH 7.4, to remove unbound compound. 1× Kinase buffer (30 μl of 1 mM MnCl2, 4 mM HEPES, pH 7.4, 20 μM Na3VO4) and 20 μl of ATP/MgCl2 were added to the wash-out plate. Detection of phosphotyrosinylated peptide for both plates was performed as described above.
For each inhibitor shown in Table 2, two IC50 determinations are shown, one under normal conditions and the other where an intermediate wash-out step is carried out. […] If there was a large increase in the IC50 value in the wash-out experiment compared to the experiment where there was no wash-out, then it was determined that the compound was behaving as a conventional reversible binding inhibitor.

[5] = system: Human umbilical vein endothelial cells (HUVEC); assay: HUVEC proliferation assay, VEGF-dependent growth ([3H]-thymidine incorporation); assay type: cell-based; conditions: Homo sapiens, HUVEC; for inhibition at 0.1 µM: conc. 100 nM; for inhibition at 1 µM: conc. 1000 nM; for inhibition at 10 µM: conc. 10000 nM
In short: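 HUVEC seeded 4000 cells/well, attached overnight, then given compound in serum/VEGF-free EBM plus 50 ng/ml VEGF (final); parallel plates used EGM2 with 2% serum lacking VEGF. Incubation 4-5 days at 37° C. DNA synthesis measured by 5 h [3H]-thymidine (1 μCi/well) incorporation, scintillation-counted.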

[6] = Concentration 100 nM, ATP conc. 10 μM
[7] = Concentration 1000 nM, ATP conc. 10 μM
[8] = Concentration 1000 nM, ATP conc. 1000 μM

| IC50 ([1]; ATP conc. 10 μM) | inhibition at 0.1 µM [1, 6] [%] | inhibition at 1 µM [1, 7] [%] | inhibition at 1 µM [1, 8] [%] | % Inhibition of KDR kinase autophosphorylation in KDR15 cells (KDR [2]) | inhibition at 1 µM (KDR [3]) [%] | IC50 ([4]; no wash) [nM] | IC50 ([4]; wash out) [nM] | melting point [°C] | Structure (SMILES) | other results |
| --- | --- | --- | --- | --- | --- | --- | --- | --- | --- | --- |
| 5.1 nM | 83 | 96 | 98 | 12% | 18 |  |  |  | COc1cc2ncnc(NC3=CC(=O)C(Cl)=CC3=O)c2cc1OC [Example 2, 2-chloro-5-[(6,7-dimethoxy-4-quinazolinyl)amino]benzo-1,4-quinone] |  |
|  | 24 | 58 | 33 | 55% and 94% |  |  |  |  | COc1cc2ncnc(NC3=CC(=O)C(C(C)C)=CC3=O)c2cc1OC [Example 9, 2-[(6,7-dimethoxy-4-quinazolinyl)amino]-5-isopropylbenzo-1,4-quinone] |  |
| 1840 nM and > 1000 nM |  | 30 | -2 | 90% and 143% and 113% |  |  |  |  | COCCOc1cc2ncnc(NC3=CC(=O)C(N(C)c4ccc(OC)c(OC)c4)=CC3=O)c2cc1OC [Example 73, 2-[(3,4-dimethoxyphenyl)(methyl)amino]-5-{[6-methoxy-7-(2-methoxyethoxy)quinazolin-4-yl]amino}benzo-1,4-quinone] | inhibition at 10 µM ([1]; Concentration not given, ATP conc. 10 μM): 13%; IC50 (KDR [3]): < 15.6 nM |
| 30 nM and 7.5 nM and 8.8 nM |  | 94 | 96 |  |  | 8.8 | 18.5 | 134 to 137 | COCCOc1cc2ncnc(NC3=CC(=O)C(Oc4ccccc4C)=CC3=O)c2cc1OC [Example 90, 2-{[6-methoxy-7-(2-methoxyethoxy)quinazolin-4-yl]amino}-5-(2-methylphenoxy)benzo-1,4-quinone] | % Inhibition [1, 8]: 97%; inhibition at 0.1 µM [5]: 22%; inhibition at 1 µM [5]: 15%; inhibition at 10 µM [5]: 95%; IC50 (KDR [3]): 236 nM and 147 nM; inhibition at 0.2 µM (KDR [3]; read-out: % Inhibition of KDR kinase autophosphorylation in KDR15 cells, compound conc. 200 nM): 29% |
| 18.9 nM | 76 | 96 | 97 |  | 55 | 18.9 | 18.9 | 189 to 190 | COCCOc1cc2ncnc(NC3=CC(=O)C(Oc4cccnc4)=CC3=O)c2cc1OC [Example 91, 2-{[6-methoxy-7-(2-methoxyethoxy)quinazolin-4-yl]amino}-5-(pyridin-3-yloxy)benzo-1,4-quinone] | inhibition at 0.1 µM [5]: 0%; inhibition at 1 µM [5]: 15%; inhibition at 10 µM [5]: 93% |
| 339 nM |  | 69 | 70 | 78% and 100% and 59% |  |  |  |  | COCCOc1cc2ncnc(NC3=CC(=O)C4(C)OC4C3=O)c2cc1OC (centres unmarked) [Example 106, 4-{[6-methoxy-7-(2-methoxyethoxy)-4-quinazolinyl]amino}-1-methyl-7-oxabicyclo[4.1.0]hept-3-ene-2,5-dione] |  |
|  |  |  |  |  | 68 | 59.8 | 82.6 | 104 to 108 | COCCOc1cc2ncnc(NC3=CC(=O)C4(Cc5ccccc5)OC4C3=O)c2cc1OC (centres unmarked) [Example 108, 1-benzyl-4-{[6-methoxy-7-(2-methoxyethoxy)quinazolin-4-yl]amino}-7-oxabicyclo[4.1.0]hept-3-ene-2,5-dione] |  |

| Structure (SMILES) | IC50 ([1]; ATP conc. 10 μM) | inhibition at 0.1 µM [1, 6] [%] | inhibition at 1 µM [1, 7] [%] | inhibition at 1 µM [1, 8] [%] | % Inhibition of KDR kinase autophosphorylation in KDR15 cells (KDR [2]) | inhibition at 1 µM (KDR [3]) [%] | IC50 ([4]; no wash) [nM] | IC50 ([4]; wash out) [nM] | melting point [°C] | other results |
| --- | --- | --- | --- | --- | --- | --- | --- | --- | --- | --- |
| COCCOc1cc2ncnc(NC3=CC(=O)C(Oc4ccc(S(N)(=O)=O)cc4)=CC3=O)c2cc1OC [Example 38, 4-[(4-{[6-methoxy-7-(2-methoxyethoxy)quinazolin-4-yl]amino}-3,6-dioxocyclohexa-1,4-dien-1-yl)oxy] benzenesulfonamide] |  |  |  |  | 97% |  |  |  |  | % Inhibition [1, 6]: 93%; % Inhibition [1, 7]: 95% |
